# Paper PMC5315611 (Clinical cancer research : an official journal of the …, 2016)
# Where two headings read alike, the source gives them in different places.
# Experiments:
# [1] = tested on: relapsed or refractory acute leukemia; settings: cited from earlier work
# [2] = Veliparib plasma pharmacokinetics; settings: after multiple doses, MTD (80 mg) vs highest administered dose (100 mg)
# [3] = clinical; settings: human, in vivo, po; for half-life: t1/2
# [4] = tested on: AML cell lines and clinical samples; settings: in vitro; cited from earlier work
# [5] = human, in vivo, po
smiles,measurement,setting,value
N.N.O=C([O-])C1(C(=O)[O-])CCC1.[Pt+2] [carboplatin],maximum tolerated dose (MTD) of carboplatin,[1]; with topotecan simultaneously for 5 days,150 mg/m^2/day
same,carboplatin dose at the MTD of the combination,"CI IV days 3-7, with veliparib 80 mg twice daily + topotecan 1.2 mg/m^2/d",150 mg/m^2/d
CC[C@@]1(O)C(=O)OCc2c1cc1n(c2=O)Cc2cc3c(CN(C)C)c(O)ccc3nc2-1 [topotecan],maximum tolerated dose (MTD) of topotecan,[1]; with carboplatin simultaneously for 5 days,1.6 mg/m^2/day
same,topotecan dose at the MTD of the combination,"CI IV days 3-7, with veliparib 80 mg twice daily + carboplatin 150 mg/m^2/d",1.2 mg/m^2/d
same,toxicity associated with topotecan 1.3 mg/m^2,in vivo,dose-limiting GI mucositis
C[C@]1(c2nc3c(C(N)=O)cccc3[nH]2)CCCN1 [veliparib],increase in AUC,[2],2.0 fold
same,maximum tolerated dose (MTD) of veliparib,with CI IV topotecan 1.2 mg/m^2/d + carboplatin 150 mg/m^2/day on days 3-7,80 mg twice daily
same,Cmax,[3]; 10 mg,74.6 ± 33 ng/mL
same,half-life,[3]; 10 mg,5.5 ± 3.5 h
same,Tmax,[3]; 10 mg,2 h
same,Cmax,[3]; 20 mg,102 ± 31.6 ng/mL
same,half-life,[3]; 20 mg,4.7 ± 1.1 h
same,Tmax,[3]; 20 mg,2 h
same,Cmax,[3]; 40 mg,231 ± 128 ng/mL
same,half-life,[3]; 40 mg,4.1 ± 0.9 h
same,Tmax,[3]; 40 mg,1 h
same,Cmax,[3]; 90 mg,509 ± 101 ng/mL
same,half-life,[3]; 90 mg,3.2 ± 1.2 h
same,Tmax,[3]; 90 mg,1 h
same,Cmax,[3]; 100 mg,1120 ± 718 ng/mL
same,half-life,[3]; 100 mg,5.9 ± 2.4 h
same,Tmax,[3]; 100 mg,1 h
same,effect on the antiproliferative and proapoptotic effects of topotecan,[4],enhances
same,synergy with cytarabine or etoposide,[4],no synergy
same,Cl/F,[5]; 10 mg,27.7 ± 9.3 (23) L/h
same,Cl/F,[5]; 20 mg,31.7 ± 7.7 (12) L/h
same,Cl/F,[5]; 40 mg,36.4 ± 15.4 (5) L/h
same,Cl/F,[5]; 80 mg,26.2 ± 7.1 (30) L/h
same,Cmax,[5]; 80 mg,608.7 ± 260.3 (35) ng/mL
same,Tmax,[5]; 80 mg,1.1 (0.3 - 6.0; 35) h
same,t1/2,[5]; 80 mg,4.7 ± 1.4 (30) h
same,Cl/F,[5]; 90 mg,35.9 ± 10.2 (3) L/h
same,Cl/F,[5]; 100 mg,44.9 ± 50.6 (4) L/h
